The text below walks through data of ChEMBL document CHEMBL1125751, “On the optimization of hydrophobic and hydrophilic substituent interactions of 2,4-diamino-5-(substituted-benzyl)pyrimidines with dihydrofolate reductase” (J Med Chem, 1991).

Assay [1] concerns the target T1, Dihydrofolate reductase (Homo sapiens) (UniProt P00374).
T1 sequence (whole entry): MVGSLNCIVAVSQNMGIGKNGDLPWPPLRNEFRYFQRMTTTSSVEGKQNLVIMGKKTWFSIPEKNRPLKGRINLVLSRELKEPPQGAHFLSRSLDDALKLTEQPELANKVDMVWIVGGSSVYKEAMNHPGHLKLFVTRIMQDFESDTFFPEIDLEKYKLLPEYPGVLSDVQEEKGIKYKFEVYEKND
Briefly: (§1) Selectivity index against Lactobacillus casei DHFR. The class given is functional.

The target in assay [2] is T1, Dihydrofolate reductase (Homo sapiens). Briefly: (§2) Selectivity index against Escherichia coli DHFR. It counts as functional.
Assay [3] in a line: as §1. It counts as functional.
The target of another assay is T2, Dihydrofolate reductase (Gallus gallus, UniProt P00378).
T2 sequence (P00378 whole entry): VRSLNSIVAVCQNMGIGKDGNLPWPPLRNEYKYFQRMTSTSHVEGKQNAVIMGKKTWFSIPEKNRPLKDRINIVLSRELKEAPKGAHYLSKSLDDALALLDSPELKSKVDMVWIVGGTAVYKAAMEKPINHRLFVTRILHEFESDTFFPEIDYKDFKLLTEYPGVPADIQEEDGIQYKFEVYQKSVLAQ
Briefly: Compound was evaluated for inhibitory activity against chicken dihydrofolate reductase. To be noted: read-out: Log 1/Ki (converted).

Assay [4] in a line: as §2. The class given is functional.

Structures are written as SMILES.

On to `CCc1cc(Cc2cnc(N)nc2N)cc(CO)c1CO`, for which the SI in assay [1] was 3.13; in assay [2], 4.28.

Regarding `CCc1cc(Cc2cnc(N)nc2N)cc(NC(C)=O)c1CO`, the SI amounted to 3.36 in assay [3] and 4.87 in assay [4]. Further, on Dihydrofolate reductase, the Ki is 708 µM.
